From ChEMBL document CHEMBL3603819, “Targeting zoonotic viruses: Structure-based inhibition of the 3C-like protease from bat coronavirus HKU4--The likely reservoir host to the human coronavirus that causes Middle East Respiratory Syndrome (MERS)” (Bioorg Med Chem, 2015) come the findings set out here.

For test [1], the system named is Pipistrellus bat coronavirus HKU5. Nature of the test: Inhibition of Bat coronavirus HKU5 3CLpro at 100 uM relative to control.
A short description of test [2]: Inhibition of Bat coronavirus HKU5 3CLpro. Also noted: species or system Pipistrellus bat coronavirus HKU5.
Test [3] deals with Tylonycteris bat coronavirus HKU4. The conditions noted are these: at 100 µM.

By inhibition is commonly meant the share of the control response that was lost under treatment. Higher therefore signals strong suppression. As usually defined, the IC50 is the midpoint of a concentration-inhibition curve.

Regarding `O=C(Nc1ccc(N(Cc2ccsc2)C(=O)Cn2nnc3ccccc32)cc1)c1cccs1`, the inhibition in test [1] was 91%; in test [3], 93%. For the same compound, the IC50 in test [2] was 540 nM.

On to `CC(C)c1ccc(N(C(=O)c2ccco2)C(C(=O)NC(C)(C)C)c2ccsc2)cc1` (stereo not given), for which the inhibition in test [3] turned out to be 18%.

For the compound `O=C(Cn1nnc2ccccc21)N(Cc1ccsc1)c1ccc(-c2cccnc2)cc1`, the inhibition in test [3] is 90%.

On to `CC(C)(C)NC(=O)C(c1cccnc1)N(C(=O)c1ccco1)c1ccc(-c2ccc(C#N)cc2)cc1` (stereo not given), for which the inhibition in test [3] was found to be 14%.

Consider `O=C(Nc1ccc(N(Cc2ccsc2)C(=O)Cn2nnc3ccccc32)cc1)c1ccccc1`, for which the inhibition in test [3] amounted to 90%.

With `CC(C)COc1ccc(N(C(=O)c2ccco2)C(C(=O)NC(C)(C)C)c2cccnc2)cc1` (stereo not given), the inhibition in test [3] was determined as 25%.

In turn, `O=C(NCc1ccccc1)C(c1cccc(F)c1)N(C(=O)Cn1nnc2ccccc21)C12CC3CC(CC(C3)C1)C2` (stereo not given) showed an inhibition in test [3] of 16%.

`CC(C)c1ccc(N(C(=O)c2ccco2)C(C(=O)NC(C)(C)C)c2cccnc2)cc1` (stereo not given) returned an inhibition in test [3] of 34%.

`CC(C)(C)NC(=O)C(c1cccnc1)N(C(=O)c1ccco1)c1ccc(NS(=O)(=O)c2ccccc2)cc1` (stereo not given) gave an inhibition in test [3] of 16%.

For `CC(C)(C)NC(=O)C(c1cccnc1)N(C(=O)c1ccco1)c1ccc(/C=C/c2ccccc2)cc1` (stereo not given), in test [3], the inhibition worked out at 21%.

In test [3], `CC(C)(C)NC(=O)C(c1cccnc1)N(C(=O)Cc1c[nH]c2ccccc12)c1ccc(C(C)(C)C)cc1` (stereo not given) returned an inhibition of 79%.

Regarding `CC(C)(C)NC(=O)C(c1cccnc1)N(C(=O)Cc1ccccc1)c1ccc(C(C)(C)C)cc1` (stereo not given), in test [3], the inhibition is 20%.

`CC(C)(C)NC(=O)C(c1ccsc1)N(C(=O)Cn1nnc2ccccc21)c1ccc(NC(=O)C2CCCCC2)cc1` (stereo not given) came in with an inhibition in test [3] of 21%.

Compound `Cc1nc2ccccc2n1CC(=O)N(c1ccc(N)cc1)C(C(=O)NC(C)(C)C)c1ccsc1` (stereo not given) came in with an inhibition in test [3] of 14%.

As to `CC(C)(C)NC(=O)C(c1ccsc1)N(C(=O)Cn1nnc2ccccc21)c1ccc(NS(C)(=O)=O)cc1` (stereo not given), the inhibition in test [3] worked out at 27%.

For the compound `CC(C)C(=O)Nc1ccc(N(Cc2ccsc2)C(=O)Cn2cc(-c3ccccc3)nn2)cc1`, the inhibition in test [3] worked out at 25%.

As for `CC(C)(C)NC(=O)C(c1cccnc1)N(C(=O)c1n[nH]c2ccccc12)c1ccc(C(C)(C)C)cc1` (stereo not given), the inhibition in test [3] stood at 23%.

In test [3], `CC(C)(C)NC(=O)C(c1ccsc1)N(C(=O)c1cccc2c1CCCC2)c1ccc(OCF)cc1` (stereo not given) came in with an inhibition of 15%.

In test [3], `Cc1ccc(C(=O)N(c2ccc(C(C)(C)C)cc2)C(C(=O)NC(C)(C)C)c2cccnc2)o1` (stereo not given) gave an inhibition of 26%.

Regarding `CC(C)(C)NC(=O)C(c1cccnc1)N(C(=O)c1ccco1)c1ccc(-c2ccc(F)c(F)c2)cc1` (stereo not given), the inhibition in test [3] was 12%.

On to `O=C(Nc1ccc(N(Cc2ccsc2)C(=O)Cn2nnc3ccccc32)cc1)C1CC1`, for which the inhibition in test [3] worked out at 89%.

In test [3], `CC(C)(C)NC(=O)C(c1cccnc1)N(C(=O)Cc1cccnc1)C1CC1` (stereo not given) registered an inhibition of 48%.

`CC(=O)Nc1ccc(N(C(=O)Cn2nnc3ccccc32)C(C(=O)NC(C)(C)C)c2cccc(F)c2)cc1` (stereo not given) yielded an inhibition in test [3] of 71%.

In turn, `CC(C)(C)NC(=O)C(c1cccnc1)N(C(=O)c1cnco1)c1ccc(C(C)(C)C)cc1` (stereo not given) gave an inhibition in test [3] of 96%.

The compound `CC(C)(C)NC(=O)C(c1c[nH]nn1)N(C(=O)c1ccco1)c1ccc(C(C)(C)C)cc1` (stereo not given) yielded an inhibition in test [3] of 16%.

With `CC(C)(C)NC(=O)C(c1cccnc1)N(C(=O)Cc1cccnc1)c1ccc(C(C)(C)C)cc1` (stereo not given), the inhibition in test [3] was 23%.

In test [3], `CC(C)(C)NC(=O)C(c1ccsc1)N(C(=O)Cc1c[nH]c2ccccc12)C1CC1` (stereo not given) gave an inhibition of 17%.

On to `CC(C)(C)NC(=O)C(c1cccnc1)N(C(=O)c1ccc(C(F)(F)F)o1)c1ccc(C(C)(C)C)cc1` (stereo not given), for which, in test [3], the inhibition amounted to 16%.

`CC(C)c1ccc(N(C(=O)c2ccc(C#N)cc2)C(C(=O)NC(C)(C)C)c2cccnc2)cc1` (stereo not given) returned an inhibition in test [3] of 28%.

Consider `CC(C)c1ccc(N(C(=O)c2ccc(C#N)cc2)C(C(=O)NC(C)(C)C)c2ccsc2)cc1` (stereo not given), for which, in test [3], the inhibition was 21%.

Turning to `CC(C)COC(=O)Nc1ccc(N(C(=O)Cn2nnc3ccccc32)C(C(=O)NC(C)(C)C)c2ccsc2)cc1` (stereo not given), the inhibition in test [3] came to 19%.

In test [3], `CC(C)(C)NC(=O)C(c1cncnc1)N(C(=O)c1ccco1)c1ccc(C(C)(C)C)cc1` (stereo not given) had an inhibition of 16%.

For `CCC(C)c1ccc(N(C(=O)c2ccco2)[C@H](C(=O)NC(C)(C)C)c2cccnc2)cc1` (stereo not given in full), the inhibition in test [3] amounted to 39%.

`CC(C)(C)NC(=O)C(c1ccsc1)N(C(=O)Cn1nnc2ccccc21)c1ccc(NC(=O)C2CC2)cc1` (stereo not given): in test [3], the inhibition is 85%.

Regarding `CC(C)(C)NC(=O)C(c1cccnc1)N(C(=O)c1ccc(Cl)o1)c1ccc(C(C)(C)C)cc1` (stereo not given), the inhibition in test [3] was 12%.

`O=C(Nc1ccc(N(C(=O)Cn2nnc3ccccc32)C(C(=O)NCc2ccccc2)c2cccc(F)c2)cc1)C1CCC1` (stereo not given) came in with an inhibition in test [3] of 74%.

As to `CC(C)(C)NC(=O)C(c1cccnc1)N(C(=O)c1coc2ccccc12)c1ccc(C(C)(C)C)cc1` (stereo not given), in test [3], the inhibition was determined as 19%.

`CC(C)(C)NC(=O)C(c1cccnc1)N(C(=O)c1cccc2c1CCCC2)c1ccc(OCF)cc1` (stereo not given) had an inhibition in test [3] of 21%.

Consider `CC(C)c1ccc(N(C(=O)c2n[nH]c3ccccc23)C(C(=O)NC(C)(C)C)c2ccsc2)cc1` (stereo not given), for which the inhibition in test [3] was determined as 11%.

The compound `CC(C)(C)NC(=O)C(c1ccsc1)N(C(=O)Cn1nnc2ccccc21)c1ccc(N)cc1` (stereo not given) showed an inhibition in test [3] of 64%.

In test [3], `CC(C)(C)NC(=O)C(c1cccnc1)N(C(=O)c1ccco1)C1CCCCC1` (stereo not given) yielded an inhibition of 6%.

On to `CC(C)(C)NC(=O)C(c1cccnc1)N(C(=O)c1c[nH]c2ccccc12)C1CC1` (stereo not given), for which, in test [3], the inhibition was found to be 49%.

In the case of `CC(C)(C)NC(=O)C(c1ccccn1)N(C(=O)c1cccnc1)c1ccc(C(C)(C)C)cc1` (stereo not given), in test [3], the inhibition amounted to 12%.

As for `CC(C)(C)NC(=O)C(c1cccnc1)N(C(=O)c1ccco1)c1ccc(OCc2ccccc2)cc1` (stereo not given), the inhibition in test [3] amounted to 14%.

In test [3], `CC(C)(C)NC(=O)C(c1ccsc1)N(C(=O)Cn1nnc2ccccc21)c1ccc(NC(=O)c2cccs2)cc1` (stereo not given) yielded an inhibition of 26%.

The compound `CC(C)(C)c1ccc(N(Cc2cccnc2)C(=O)c2ccoc2)cc1` showed an inhibition in test [3] of 24%.

`CC(C)(C)NC(=O)[C@H](c1cccnc1)N(C(=O)c1ccco1)c1ccc(C(C)(C)C)cc1`: the inhibition in test [3] worked out at 65%.

Compound `CC(C)(C)NC(=O)C(c1cccnc1)N(C(=O)Cc1cccnc1)c1ccc(F)cc1` (stereo not given) had an inhibition in test [3] of 47%.

Regarding `CC(C)(C)NC(=O)C(c1cccnc1)N(C(=O)c1cc[nH]n1)c1ccc(C(C)(C)C)cc1` (stereo in doubt; 124B), the inhibition in test [3] was found to be 17%.

In test [3], `CC(C)c1ccc(N(C(=O)Cc2cccnc2)C(C(=O)NC(C)(C)C)c2ccsc2)cc1` (stereo not given) came in with an inhibition of 24%.

Turning to `CC(C)(C)NC(=O)C(c1cc[nH]n1)N(C(=O)c1ccco1)c1ccc(C(C)(C)C)cc1` (stereo not given), the inhibition in test [3] came out at 11%.

Consider `CC(C)(C)c1ccc(N(Cc2cccnc2)C(=O)c2c[nH]cn2)cc1`, for which the inhibition in test [3] worked out at 28%.

Consider `CC(C)(C)NC(=O)C(c1cccnc1)N(C(=O)c1ccc(C(F)(F)F)cn1)c1ccc(F)cc1` (stereo not given), for which, in test [3], the inhibition came out at 29%.

For `CC(C)(C)NC(=O)C(c1ccsc1)N(C(=O)c1ccc(C#N)cc1)c1ccc(OCF)cc1` (stereo not given), the inhibition in test [3] came out at 16%.

In test [3], `CC(=O)Nc1ccc(N(C(=O)Cn2ccnn2)C(C(=O)NC(C)(C)C)c2ccsc2)cc1` (stereo not given) displayed an inhibition of 27%.

Consider `CC(C)(C)NC(=O)C(c1cccnc1)N(C(=O)Cc1c[nH]c2ccccc12)c1ccc(F)cc1` (stereo not given), for which, in test [3], the inhibition was 41%.

Compound `CC(C)(C)NC(=O)C(c1ccsc1)N(C(=O)c1ccc(C#N)cc1)c1ccc(F)cc1` (stereo not given) gave an inhibition in test [3] of 13%.

The compound `CC(C)(C)NC(=O)C(c1cccnc1)N(C(=O)c1ncccn1)c1ccc(C(C)(C)C)cc1` (stereo not given) returned an inhibition in test [3] of 13%.

In test [3], `O=C(Cn1nnc2ccccc21)N(Cc1ccsc1)c1ccc(-c2ccncc2)cc1` showed an inhibition of 98%.

`CC(C)c1ccc(N(C(=O)Cc2c[nH]c3ccccc23)C(C(=O)NC(C)(C)C)c2cccnc2)cc1` (stereo not given) yielded an inhibition in test [3] of 78%.

As for `CC(C)(C)NC(=O)C(c1ccsc1)N(C(=O)c1cccc2c1CCCC2)c1ccc(C(C)(C)C)cc1` (stereo not given), the inhibition in test [3] amounted to 14%.

`CC(C)(C)NC(=O)C(c1cccnc1)N(C(=O)c1ccc(C#N)cc1)c1ccc(C(C)(C)C)cc1` (stereo not given) registered an inhibition in test [3] of 11%.

Turning to `CC(C)(C)NC(=O)C(c1ccsc1)N(C(=O)c1n[nH]c2ccccc12)c1ccc(F)cc1` (stereo not given), in test [3], the inhibition stood at 11%.

`COc1ccc(N(C(=O)c2ccco2)C(C(=O)NC(C)(C)C)c2cccnc2)cc1` (stereo not given): the inhibition in test [3] worked out at 10%.

In turn, `Cc1nccn1CC(=O)N(c1ccc(NC(=O)C(C)C)cc1)C(C(=O)NC(C)(C)C)c1ccsc1` (stereo not given) came in with an inhibition in test [3] of 18%.

The compound `Cc1nc2ccccc2n1CC(=O)N(c1ccc(NC(=O)C(C)C)cc1)C(C(=O)NC(C)(C)C)c1ccsc1` (stereo not given) had an inhibition in test [3] of 14%.

On to `CC(C)(C)NC(=O)C(c1cccnc1)N(C(=O)c1cccc(O)c1)c1ccc(C(C)(C)C)cc1` (stereo not given), for which, in test [3], the inhibition was 10%.

The compound `CC(C)(C)NC(=O)C(c1cccnc1)N(C(=O)Cc1c[nH]c2ccccc12)c1ccc(OCF)cc1` (stereo not given) registered an inhibition in test [3] of 52%.
